# Measurements: patent US20100298141A1, “SUBSTITUTED PYRIDINE N-OXIDE HERBICIDES” (E. I. DU PONT DE NEMOURS AND COMPANY, priority 2007, published 2010)
# Experiments:
# [1] = tested on: yellow nutsedge; experiment: Test C pre-/postemergence test; type: in vivo, Cyperus esculentus; conditions: Preemergence
# Procedure, shortened: (§1)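 Seeds were planted and treated preemergence with test chemical in a non-phytotoxic solvent mixture containing surfactant. Postemergence applications of the same formulation went onto plants 2 to 18 cm tall (1- to 4-leaf stage). A dash marks no test result.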
# [2] = tested on: common ragweed; experiment: Test C pre-/postemergence test; type: in vivo, Ambrosia elation; conditions: Preemergence
# Procedure, shortened: as §1
# [3] = tested on: umbrella sedge; experiment: Test C flooded paddy test; type: in vivo, Cyperus difformis; conditions: Flood
# Procedure, shortened: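 Visual injury ratings against untreated controls, taken 13 to 15 days after compound was added to paddy water standing 3 cm above the soil.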
# [4] = tested on: woolly cupgrass; experiment: Test C pre-/postemergence test; type: in vivo, Eriochloa villosa; conditions: Preemergence
# Procedure, shortened: as §1
# [5] = tested on: soybean; experiment: Test C pre-/postemergence test; type: in vivo, Glycine max; conditions: Preemergence
# Procedure, shortened: as §1
# [6] = tested on: johnsongrass; experiment: Test C pre-/postemergence test; type: in vivo, Sorghum halepense; conditions: Preemergence
# Procedure, shortened: as §1
# [7] = tested on: giant foxtail; experiment: Test A pre-/postemergence greenhouse test; type: in vivo, Setaria faberi; conditions: for Foxtail, Giant plant response rating: 0 to 100 scale
# Procedure, shortened: (§2)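 Pre: directed soil spray on seeded loam/sand. Post: foliar spray, plants 2–10 cm, 1–2 leaf stage, applied concurrently. Vehicle: non-phytotoxic solvent + surfactant. Greenhouse ~10 d; visual injury rating vs untreated controls.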
# [8] = tested on: Goosegrass; experiment: Test C pre-/postemergence test; type: in vivo, Eleusin indica; conditions: Preemergence
# Procedure, shortened: as §1
# [9] = tested on: lambsquarters; experiment: Test C pre-/postemergence test; type: in vivo, Chenopodium album; conditions: Preemergence
# Procedure, shortened: as §1
# [10] = tested on: morningglory; experiment: Test C pre-/postemergence test; type: in vivo, Ipomoea coccinea; conditions: Preemergence
# Procedure, shortened: as §1
# [11] = tested on: corn; experiment: Test C pre-/postemergence test; type: in vivo, Zea mays
# Procedure, shortened: as §1
# [12] = tested on: crabgrass; experiment: Test A pre-/postemergence greenhouse test; type: in vivo, Digitaria sanguinalis; conditions: for Crabgrass, Large plant response rating: 0 to 100 scale
# Procedure, shortened: as §2
# [13] = tested on: morningglory; experiment: Test A pre-/postemergence greenhouse test; type: in vivo, Ipomoea spp.; conditions: for Morningglory plant response rating: 0 to 100 scale
# Procedure, shortened: as §2
# [14] = tested on: downy brome; experiment: Test C pre-/postemergence test; type: in vivo, Bromus tectorum
# Procedure, shortened: as §1
# [15] = tested on: wheat; experiment: Test A pre-/postemergence greenhouse test; type: in vivo, Triticum aestivum; conditions: for Wheat plant response rating: 0 to 100 scale
# Procedure, shortened: as §2
# [16] = tested on: giant foxtail; experiment: Test C pre-/postemergence test; type: in vivo, Setaria faberii; conditions: Preemergence
# Procedure, shortened: as §1
# [17] = tested on: cocklebur; experiment: Test C pre-/postemergence test; type: in vivo, Xanthium strumarium
# Procedure, shortened: as §1
# [18] = 31 g ai/ha, scale 0 to 100 (0 no effect, 100 complete control)
# [19] = Postemergence, 125 g ai/ha, 0 is no effect, 100 is complete control
# [20] = Postemergence, 500 g ai/ha, 0 is no effect, 100 is complete control
# [21] = Preemergence, 125 g ai/ha, 0 no effect, 100 complete control
# [22] = Preemergence, 500 g ai/ha, 0 to 100 scale where 0 is no effect and 100 is complete control
# [23] = 62 g ai/ha, Preemergence, scale 0 to 100
# [24] = Preemergence, 31 g ai/ha, scale 0 to 100 (0 no effect, 100 complete control)
# [25] = preemergence, 125 g ai/ha, scale 0 (no effect) to 100 (complete control)
compound,measurement,setting,value
Cn1nc(C(F)(F)F)c(C[S+]([O-])c2ccc(Cl)c[n+]2[O-])c1Cl (racemic) [Compound 17],"Nutsedge, Yellow plant response rating","[1]; 62 g ai/ha, scale 0 to 100",80
same,"Plant response rating, Nutsedge, Yellow",[1]; [18],70
same,Ragweed plant response rating,"[2]; 62 g ai/ha, scale 0 to 100",75
same,"Plant response rating, Ragweed",[2]; [18],10
same,"Plant response rating, Sedge, Umbrella",[3]; [18],60
same,"Plant response rating, Sedge, Umbrella","[3]; 62 g ai/ha, scale 0 to 100, 0 no effect, 100 complete control, 13 to 15 days",85
same,"Plant response rating, Sedge, Umbrella","[3]; 125 g ai/ha, scale 0 to 100, 0 no effect, 100 complete control, 13 to 15 days",95
same,"Plant response rating, Sedge, Umbrella","[3]; 250 g ai/ha, scale 0 to 100, 0 no effect, 100 complete control, 13 to 15 days",95
same,"Cupgrass, Woolly plant response rating","[4]; 62 g ai/ha, scale 0 to 100",100
same,"Plant response rating, Cupgrass, Woolly",[4]; [18],95
same,"Plant response rating (0 to 100), Cupgrass, Woolly",[4]; 250 g ai/ha,100
same,Soybean plant response rating,"[5]; 62 g ai/ha, scale 0 to 100",20
same,"Plant response rating, Soybean",[5]; [18],0
same,Johnsongrass plant response rating,"[6]; 62 g ai/ha, scale 0 to 100",100
same,"Plant response rating, Johnsongrass",[6]; [18],98
same,"Plant response rating (0 to 100), Johnsongrass",[6]; 250 g ai/ha,100
same,"Foxtail, Giant plant response rating",[7]; [19],80
same,"Foxtail, Giant plant response rating",[7]; [20],90
same,"Foxtail, Giant plant response rating",[7]; [21],100
same,"Plant response rating, Foxtail, Giant",[7]; [22],100
same,Goosegrass plant response rating,"[8]; 62 g ai/ha, scale 0 to 100",100
same,"Plant response rating, Goosegrass",[8]; [18],100
same,"Plant response rating (0 to 100), Goosegrass",[8]; 250 g ai/ha,100
same,Lambsquarters plant response rating,"[9]; 62 g ai/ha, scale 0 to 100",100
same,"Plant response rating, Lambsquarters",[9]; [18],100
same,Morningglory plant response rating,"[10]; 62 g ai/ha, scale 0 to 100",85
same,"Plant response rating, Morningglory",[10]; [18],0
same,Corn plant response rating,[11]; [23],85
same,"Plant response rating, Corn",[11]; [24],60
same,"Plant response rating (0 to 100), Corn","[11]; Preemergence, 250 g ai/ha",100
same,Corn plant response rating,[11]; [25],98
same,"Crabgrass, Large plant response rating",[12]; [19],80
same,"Crabgrass, Large plant response rating",[12]; [20],90
same,"Crabgrass, Large plant response rating",[12]; [21],90
same,"Plant response rating, Crabgrass, Large",[12]; [22],100
same,Morningglory plant response rating,[13]; [19],10
same,Morningglory plant response rating,[13]; [20],50
same,Morningglory plant response rating,[13]; [21],10
same,"Plant response rating, Morningglory",[13]; [22],90
same,"Bromegrass, Downy plant response rating",[14]; [23],40
same,"Plant response rating, Bromegrass, Downy",[14]; [24],40
same,"Plant response rating (0 to 100), Bromegrass, Downy","[14]; Preemergence, 250 g ai/ha",85
same,"Bromegrass, Downy plant response rating",[14]; [25],80
same,Wheat plant response rating,[15]; [19],50
same,Wheat plant response rating,[15]; [20],60
same,Wheat plant response rating,[15]; [21],50
same,"Plant response rating, Wheat",[15]; [22],80
same,"Foxtail, Giant plant response rating","[16]; 62 g ai/ha, scale 0 to 100",100
same,"Plant response rating, Foxtail, Giant",[16]; [18],95
same,"Plant response rating (0 to 100), Foxtail, Giant",[16]; 250 g ai/ha,100
same,Cocklebur plant response rating,[17]; [23],0
same,"Plant response rating, Cocklebur",[17]; [24],0
same,Cocklebur plant response rating,[17]; [25],0
